Experimental data: patent US8114854B2, “Crystalline forms of gemcitabine amide prodrug, compositions and use thereof” (Eli Lilly and Company, priority 2006, dated 2012)

Legend:
[1] = Small Intestine Homogenate Assay, monkey; format: in vitro ADME, cynomolgus monkeys; settings: 6 hour incubation
Experimental: (§1) Small Intestine Homogenate Assay
(§2) To determine the stability of 1-(2,2-difluoro-2-deoxy-β-D-ribofuranosyl)-4-(2-propyl-1-oxopentyl)aminopyrimidin-2-one to enzymatic hydrolysis in the intestine, crude homogenates of small intestinal epithelial cells are prepared from sections of the upper small intestine from CD-1 mice, beagle dogs, cynomolgus monkeys, and humans. Mouse and dog homogenates are prepared from freshly collected tissue, while monkey and human homogenates are prepared from previously frozen tissues. Cells are gently scraped from intestinal segments, pooled, and homogenized in 50 mM acetate buffer using Polytron (PT-10-85). Protein concentrations are determined by standard spectrophotometric techniques. The prepared homogenates are store at −70° C. before using.
(§3) The hydrolytic rates of 1-(2,2-difluoro-2-deoxy-β-D-ribofuranosyl)-4-(2-propyl-1-oxopentyl)aminopyrimidin-2-one in small intestinal homogenates (SIH) is determined by incubating a compound of formula I (100 uM) with SIH (2.5-5 mg/mL of total protein) in acetate at pH 7.5 for up to 6 hours. Concentrations of gemcitabine released via hydrolysis is determined by LC/MS analysis after the reaction is quenched with acetonitrile. […]

[2] = Liver S9 Hydrolysis Assay, monkey; format: in vitro ADME, cynomolgus monkey; settings: monkey liver S9, 6 hour incubation
Experimental: (§4) Liver S9 Hydrolysis Assay
(§5) Hydrolysis of 1-(2,2-difluoro-2-deoxy-β-D-ribofuranosyl)-4-(2-propyl-1-oxopentyl)aminopyrimidin-2-one by liver enzymes is determined by liver hydrolysis assay. Liver homogenates are prepared from CD-1 mouse, beagle dog, cynomolgus monkey, and human livers. Liver tissues are cut into small pieces using scissors, then, homogenized in 50 mM acetate buffer using Polytron (PT-10-85) for 1 min. Post-mitochondrial (S9) fractions are prepared from each by ultracentrifugation at 9,000×g at 4° C. for 10 min. Mouse, dog and monkey liver S9 fractions are prepared from freshly collected tissues, while human liver S9 are prepared from previously frozen tissue. After centrifugation, the supernatant is collected and protein concentrations are determined by standard spectrophotometric techniques. The prepared S9 fractions are store at −70° C. before using.
(§6) The hydrolytic rates of 1-(2,2-difluoro-2-deoxy-β-D-ribofuranosyl)-4-(2-propyl-1-oxopentyl)aminopyrimidin-2-one in liver S9 is determined by incubating compound (10 uM) with S9 (2 mg/mL of total protein) in phosphate buffered saline at pH 8.0 for up to 6 hours. Concentrations of gemcitabine released via hydrolysis are determined by LC/MS analysis after the reaction is quenched with acetonitrile. […]

[3] = test system: Male and female CD-1 mice; test: 14 Day Mouse Study (toxicology); format: in vivo
Experimental: A 14-Day Mouse Study is conducted to evaluate whether 1-(2,2-difluoro-2-deoxy-β-D-ribofuranosyl)-4-(2-propyl-1-oxopentyl)aminopyrimidin-2-one produces adverse effects in mice following 14 days of oral gavage dosing and to determine the plasma concentrations of 1-(2,2-difluoro-2-deoxy-β-D-ribofuranosyl)-4-(2-propyl-1-oxopentyl)aminopyrimidin-2-one and its metabolites gemcitabine HCl and deoxydifluorouridine after 1 or 14 doses.
Male and female CD-1 mice 9-12 weeks of age are dosed with 1-(2,2-difluoro-2-deoxy-β-D-ribofuranosyl)-4-(2-propyl-1-oxopentyl)aminopyrimidin-2-one drug by oral gavage. A range of doses is selected in an effort to determine a maximum tolerated dose and dose limiting toxicity. A dose volume of 10 mL/kg is used and doses are administered once daily.
Clinical signs, body weight, food consumption, hematology, clinical chemistry, plasma concentrations of 1-(2,2-difluoro-2-deoxy-β-D-ribofuranosyl)-4-(2-propyl-1-oxopentyl)aminopyrimidin-2-one and metabolites gemcitabine HCl and deoxydifluorouridine, and pathology (including gross pathology, organ weights, and histopathology) are evaluated.

[4] = Small Intestine Homogenate Assay (all species); format: in vitro ADME, CD-1 mice, beagle dogs, cynomolgus monkeys, and humans; settings: 100 uM, SIH 2.5-5 mg/mL protein, pH 7.5
Experimental: as §1, §2, §3

[5] = test system: HCT-116 colon tumor cells; test: In Vivo Assay, HCT-116 colon tumor xenograft; settings: oral gavage
Experimental: HCT-116 colon tumor cells are grown in vitro under standard tissue culture conditions, harvested, washed, and 5×10^6 cells (1:1 suspension in Matrigel, Collaborative Biomedical Products, Inc) are injected subcutaneously in the rear flank of female nude mice (Charles River, CD1 nu/nu, 24-27 g, irradiated with 450 Rads within 24 h of implantation). Tumors are allowed to grow to ˜100 mm^3 before initiation of therapy. Vehicle control, 1-(2,2-difluoro-2-deoxy-β-D-ribofuranosyl)-4-(2-propyl-1-oxopentyl)aminopyrimidin-2-one or gemcitabine-HCl at various dose levels are administered to the mice by oral gavage (10 ml/kg volume) at the times indicated in the individual experiments. Compounds are administered either daily for fourteen days, every other day for a total of seven doses, or every third day for a total of four doses. […] Tumor size is determined by caliper measurements and tumor volume (mm^3) is estimated from the formula l×w^2×0.536, where l is the larger and w is the smaller of perpendicular diameters. All data (tumor measurements and animal weights) are captured twice-weekly beginning with the start of therapy and analyzed using a computer based tumor measurement system.

[6] = Liver S9 Hydrolysis Assay, human; format: in vitro ADME; settings: human liver S9, 6 hour incubation
Experimental: as §4, §5, §6

[7] = Small Intestine Homogenate Assay, human; format: in vitro ADME, humans; settings: 6 hour incubation
Experimental: as §1, §2, §3

[8] = Liver S9 Hydrolysis Assay (all species); format: in vitro ADME, CD-1 mouse, beagle dog, cynomolgus monkey, and human; settings: all species described; 10 uM, S9 2 mg/mL protein, pH 8.0
Experimental: as §4, §5, §6

[9] = Monkey Pharmacokinetics Assay; format: in vivo; settings: administered intravenously to cynomolgus monkeys
Experimental: Monkey Pharmacokinetics Assay
The pharmacokinetic profiles of gemcitabine and a 1-(2,2-difluoro-2-deoxy-β-D-ribofuranosyl)-4-(2-propyl-1-oxopentyl)aminopyrimidin-2-one are assessed in cynomolgus monkeys following oral and intravenous administration in a crossover design. Compounds are administered at doses selected to contain approximately 10 mg/kg of gemcitabine. Blood samples are collected into EDTA-treated tubes containing tetrahydrouridine (0.5 mM final concentration in blood) at designated intervals for up to 48 hours. Animals are pretreated with ranitidine (intravenous, 5 mg/kg) in the oral dosing periods. Plasma is isolated by centrifugation and frozen prior to analysis. Plasma concentrations of gemcitabine and 1-(2,2-difluoro-2-deoxy-β-D-ribofuranosyl)-4-(2-propyl-1-oxopentyl)aminopyrimidin-2-one are determined by LC/MS/MS analysis. Pharmacokinetic parameters are determined using WinNonlin software (Pharsight Corp., Mountain View, Calif.).

[10] = test system: Male and female beagle dogs; test: 7-Day Dog Study (toxicology); format: in vivo; settings: oral via capsule once daily for 7 days
Experimental: To evaluate the toxicity profile of 1-(2,2-difluoro-2-deoxy-β-D-ribofuranosyl)-4-(2-propyl-1-oxopentyl)aminopyrimidin-2-one when administered to Beagle dogs for 7 days, and to determine the plasma concentrations of 1-(2,2-difluoro-2-deoxy-β-D-ribofuranosyl)-4-(2-propyl-1-oxopentyl)aminopyrimidin-2-one and metabolites gemcitabine HCl and deoxydifluorouridine after 1 or 7 doses, a 7-day dog study is conducted.
Male and female beagle dogs 6-48 months of age are dosed orally via capsule with 1-(2,2-difluoro-2-deoxy-β-D-ribofuranosyl)-4-(2-propyl-1-oxopentyl)aminopyrimidin-2-one. A range of doses is selected in an effort to determine a maximum tolerated dose and dose limiting toxicity. A dose volume of 1 mL/kg is used and doses are administered once daily.
Clinical signs, body weight, food consumption, body temperature, hematology (including coagulation), clinical chemistry, urinalysis, plasma concentrations of 1-(2,2-difluoro-2-deoxy-β-D-ribofuranosyl)-4-(2-propyl-1-oxopentyl)aminopyrimidin-2-one and its metabolites gemcitabine HCl and deoxydifluorouridine, and pathology (including gross pathology, organ weights, and histopathology) were evaluated.

[11] = pH Chemical Stability Assay; format: physicochemical; settings: pH range 1 to 8, after four hours, 40° C., 100 mcg/mL in buffers
Experimental: pH Chemical Stability Assay
The pH chemical stability is assessed using a semi-automated HPLC technique. Samples of 1-(2,2-difluoro-2-deoxy-β-D-ribofuranosyl)-4-(2-propyl-1-oxopentyl)aminopyrimidin-2-one are prepared at 100 mcg/mL in five buffers representing the pH range throughout the gastrointestinal tract (pH1-pH8). Samples are loaded onto an HPLC autosampler incubated at 40° C. Samples are repeatedly injected on the HPLC at hourly intervals for up to 24 hours with an HPLC column that separates a compound of formula I from gemcitabine. The peak area of 1-(2,2-difluoro-2-deoxy-β-D-ribofuranosyl)-4-(2-propyl-1-oxopentyl)aminopyrimidin-2-one is monitored by UV detection over time and are compared to initial peak areas to determine stability.

[12] = Mouse Pharmacokinetics; format: in vivo, male CD-1 mice
Experimental: The pharmacokinetic profiles of gemcitabine and 1-(2,2-difluoro-2-deoxy-β-D-ribofuranosyl)-4-(2-propyl-1-oxopentyl)aminopyrimidin-2-one are assessed in male CD-1 mice following oral administration at doses selected to contain approximately 10 mg/kg of gemcitabine. Designated animals (n=3/time point/compound) are sacrificed at 0.08, 0.25, 0.5, 1, 2, and 6 hours after dosing, and systemic blood samples are collected into EDTA-treated tubes containing tetrahydrouridine (0.5 mM final concentration in blood) to inhibit further metabolism of gemcitabine. An additional 3 animals are sacrificed at 0.08 hours for collection of hepatic portal blood. Plasma is isolated by centrifugation and frozen prior to analysis. Plasma concentrations of gemcitabine and prodrugs are determined by LC/MS/MS analysis. Pharmacokinetic parameters are calculated using WinNonlin software (Pharsight Corp., Mountain View, Calif.). Pharmacokinetic parameters of each prodrug are compared to those determined from administration of oral gemcitabine hydrochloride in a similar study design.

[13] = test system: Female CD-1 mice; test: 4-Day Mouse Screen (toxicology); format: in vivo; settings: oral gavage once daily for 4 days, molar equivalent of 8-mg/kg gemcitabine
Experimental: To evaluate the toxicity produced by orally administered 1-(2,2-difluoro-2-deoxy-β-D-ribofuranosyl)-4-(2-propyl-1-oxopentyl)aminopyrimidin-2-one when administered daily to female […] mice for 4 days, the gastrointestinal toxicity profiles of 1-(2,2-difluoro-2-deoxy-β-D-ribofuranosyl)-4-(2-propyl-1-oxopentyl)aminopyrimidin-2-one is compared with the historical results for gastrointestinal toxicity when gemcitabine is administered orally at 8 mg/kg in a 4-day mouse study.
Female CD-1 mice 5-8 weeks of age are dosed with 1-(2,2-difluoro-2-deoxy-β-D-ribofuranosyl)-4-(2-propyl-1-oxopentyl)aminopyrimidin-2-one by oral gavage. A dose level is chosen to approximate a molar equivalent of 8-mg/kg gemcitabine. A dose volume of 10 mL/kg is used and doses are administered once daily on 4 consecutive days. Necropsy is performed approximately 5-8 hours following the 4th dose.
Clinical signs, clinical chemistry, gross pathology, and limited histopathology (ileum, jejunum, and liver) are evaluated.

[14] = test system: mice; settings: single oral (gavage) dose of 167, 333, or 500 mg/kg; cited from earlier work
[15] = test system: mice; settings: comparable exposures via intravenous dosing; cited from earlier work
[16] = result of first pass metabolism; cited from earlier work

CCCC(CCC)C(=O)Nc1ccn([C@@H]2O[C@H](CO)[C@@H](O)C2(F)F)c(=O)n1 [1-(2,2-difluoro-2-deoxy-β-D-ribofuranosyl)-4-(2-propyl-1-oxopentyl)aminopyrimidin-2-one]
total compound converted to gemcitabine [1]: less than 3%
total compound converted to gemcitabine [2]: approximately 35%
systemic gemcitabine exposure from the prodrug versus gemcitabine HCl on a molar equivalent basis ([3]; 14-day oral gavage study): approximately twice
enteropathy versus gemcitabine HCl on a molar equivalent basis ([3]; 14 days of oral gavage dosing): less enteropathy
rate of hydrolysis in small intestine homogenate [4]: slow rate of hydrolysis
overall toxicity versus equivalent amount of gemcitabine-HCl ([5]; HCT-116 tumor-bearing nude mice): less overall toxicity
antitumor efficacy versus equivalent dose of gemcitabine-HCl ([5]; HCT-116 tumors in nude mice): comparable
total compound converted to gemcitabine [6]: approximately 35%
total compound converted to gemcitabine [7]: less than 3%
hydrolysis in liver S9 [8]: hydrolyzed
hydrolysis in vivo to release gemcitabine [9]: extensively hydrolyzed
hematotoxicity and other toxicities, including GI toxicity [10]: consistent with what has been previously described for parenteral gemcitabine
degraded to gemcitabine [11]: Less than 25%
concentrations of intact prodrug in hepatic portal plasma ([12]; 0.08 hours after oral dosing, CD-1 mice): relatively high concentrations
hydrolysis in vivo to release gemcitabine ([12]; administered orally to CD-1 mice, dose containing approximately 10 mg/kg of gemcitabine): extensively hydrolyzed
plasma exposure to gemcitabine compared to direct oral administration of gemcitabine hydrochloride ([12]; oral, CD-1 mice): increased
severity of atrophic intestinal changes or enteropathy versus gemcitabine HCl [13]: significant reduction

Nc1ccn([C@@H]2O[C@H](CO)[C@@H](O)C2(F)F)c(=O)n1 [gemcitabine, 2′,2′-difluoro-2′-deoxycytidine]
adverse dose-limiting intestinal lesions [14]: moderate-to-marked loss of mucosal epithelium (atrophic enteropathy)
death or gastrointestinal toxicity [15]: did not result in death or gastrointestinal toxicity
oral bioavailability [16]: poor oral bioavailability
